From patent publication US20230081426A1, “COMPOUNDS AND METHODS FOR KRAS MODULATION AND INDICATIONS THEREFOR” (Plexxikon Inc., priority 2020, published 2023)

What was measured:
[1] = biological target: T1, G12D-mutant human KRAS (amino acid residues 1-188) (Homo sapiens, UniProt P01116, G12D); test: KRAS Binding Disruption Assay (AlphaScreen; biotinylated KRpep-2d analogue or RAF1-RBD), G12D; details: KRAS G12D; geometric mean; read-out: KRAS GMean IC50 (uM) MUTATION: G12D
T1 construct: G12D or G12C-mutant human KRAS (amino acid residues 1-188) with FLAG tag; made in house; host or cells: E. coli
How it was run: (§1)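 Compounds are titrated against 5-20 nM mutant KRAS and 5-20 nM of either a biotinylated KRpep-2d analogue or RAF1-RBD, incubated 1 h at 25° C. Disruption is detected as reduced Alpha signal after 1 h with donor and acceptor beads at 10 μg/mL.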

[2] = biological target: T2, G12C-mutant human KRAS (amino acid residues 1-188) (Homo sapiens, UniProt P01116, G12C); test: KRAS Binding Disruption Assay (AlphaScreen; biotinylated KRpep-2d analogue or RAF1-RBD), G12C; details: geometric mean, read-out: KRAS GMean IC50 (uM) MUTATION: G12C
T2 construct: G12D or G12C-mutant human KRAS (amino acid residues 1-188) with FLAG tag; made in house; host or cells: E. coli
How it was run: as §1

T1 sequence (P01116 1-188 isoform P01116-2 G12D): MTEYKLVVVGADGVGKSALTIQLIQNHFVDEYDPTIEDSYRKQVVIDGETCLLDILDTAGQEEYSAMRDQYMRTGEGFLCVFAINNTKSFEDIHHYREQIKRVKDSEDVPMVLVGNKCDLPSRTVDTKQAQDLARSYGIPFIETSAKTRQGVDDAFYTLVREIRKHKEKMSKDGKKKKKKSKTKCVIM
T2 sequence (P01116 1-188 isoform P01116-2 G12C): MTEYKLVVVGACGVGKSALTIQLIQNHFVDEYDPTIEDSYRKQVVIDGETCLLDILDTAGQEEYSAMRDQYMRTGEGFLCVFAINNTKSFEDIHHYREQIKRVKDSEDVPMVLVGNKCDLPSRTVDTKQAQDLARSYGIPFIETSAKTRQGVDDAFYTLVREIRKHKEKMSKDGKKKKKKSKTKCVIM

SMILES	IC50 [1] [µM]	IC50 [2] [µM]
COC1CN(c2nc(N3C[C@H]4CC[C@@H](C3)N4)c3ccc(-c4cc(O)cc5ccccc45)c(F)c3n2)C1 [P-0658, 4-(4-((1R,5S)-3,8-diazabicyclo[3.2.1]octan-3-yl)-8-fluoro-2-(3-methoxyazetidin-1-yl)quinazolin-7-yl)naphthalen-2-ol]	0.0001 to 10	100 to 1000
CN1CCC[C@H]1COc1nc(N2C[C@H]3CC[C@@H](C2)N3)c2ccc(-c3nccc4cccc(Cl)c34)c(F)c2n1 [P-0728, 4-((1R,5S)-3,8-diazabicyclo[3.2.1]octan-3-yl)-7-(8-chloroisoquinolin-1-yl)-8-fluoro-2-(((S)-1-methylpyrrolidin-2-yl)methoxy)quinazoline]	10 to 100	100 to 1000
Oc1cc(-c2ccc3c(N4C[C@H]5CC[C@@H](C4)N5)nc(OCC4CC(O)C4)nc3c2F)c2ccccc2c1 (stereo partly drawn) [P-0650, 4-(4-((1R,5S)-3,8-diazabicyclo[3.2.1]octan-3-yl)-8-fluoro-2-((3-hydroxycyclobutyl)methoxy)quinazolin-7-yl)naphthalen-2-ol]	0.0001 to 10	0.0001 to 10
Fc1cc2c(N3C[C@H]4CC[C@@H](C3)N4)nc(OCC34CCCN3CCC4)nc2c(F)c1-c1c[nH]c2cccc(C3CC3)c12 [P-0730, 4-((1R,5S)-3,8-diazabicyclo[3.2.1]octan-3-yl)-7-(4-cyclopropyl-1H-indol-3-yl)-6,8-difluoro-2-((tetrahydro-1H-pyrrolizin-7a(5H)-yl)methoxy)quinazoline]	0.0001 to 10	0.0001 to 10
Oc1cc(-c2ccc3c(N4C[C@H]5CC[C@@H](C4)N5)nc(NCC4(O)CCC4)nc3c2F)c2ccccc2c1 [P-0681, 4-(4-((1R,5S)-3,8-diazabicyclo[3.2.1]octan-3-yl)-8-fluoro-2-(((1-hydroxycyclobutyl)methyl)amino)quin-azolin-7-yl)naphthalen-2-ol]	0.0001 to 10	100 to 1000
CN1CCC[C@H]1COc1nc(N2C[C@H]3CC[C@@H](C2)N3)c2cc(F)c(-c3n[nH]c4ccc(F)cc34)c(F)c2n1 [P-0724, 4-((1R,5S)-3,8-diazabicyclo[3.2.1]octan-3-yl)-6,8-difluoro-7-(5-fluoro-1H-indazol-3-yl)-2-(((S)-1-methylpyrrolidin-2-yl)methoxy)quinazoline]	10 to 100	100 to 1000
Oc1cc(-c2ccc3c(N4C[C@H]5CC[C@@H](C4)N5)nc(OCC4CCCC4)nc3c2F)c2ccccc2c1 [P-0810, 4-(4-((1R,5S)-3,8-diazabicyclo[3.2.1]octan-3-yl)-2-(cyclopentylmethoxy)-8-fluoroquinazolin-7-yl)naphthalen-2-ol]	0.0001 to 10	10 to 100
Cc1ccc2[nH]cc(-c3ccc4c(N5C[C@H]6CC[C@@H](C5)N6)nc(OCC56CCCN5CCC6)nc4c3F)c2c1F [P-0646, 4-((1R,5S)-3,8-diazabicyclo[3.2.1]octan-3-yl)-8-fluoro-7-(4-fluoro-5-methyl-1H-indol-3-yl)-2-((tetrahydro-1H-pyrrolizin-7a(5H)-yl)methoxy)quinazoline]	0.0001 to 10	0.0001 to 10
CNCCNc1nc(N2C[C@H]3CC[C@@H](C2)N3)c2ccc(-c3cc(O)cc4ccccc34)cc2n1 [P-0061, 4-(4-((1R,5S)-3,8-diazabicyclo[3.2.1]octan-3-yl)-2-((2-(methylamino)ethyl)amino)quinazo-lin-7-yl)naphthalen-2-ol]	0.0001 to 10	100 to 1000
CN1CCC[C@H]1COc1nc(N2C[C@H]3CC[C@@H](C2)N3)c2cc(F)c(-c3c[nH]c4ccc(C(F)(F)F)cc34)c(F)c2n1 [P-0757, 4-((1R,5S)-3,8-diazabicyclo[3.2.1]octan-3-yl)-6,8-difluoro-2-(((S)-1-methylpyrrolidin-2-yl)methoxy)-7-(5-(trifluoromethyl)-1H-indol-3-yl)quinazoline]	0.0001 to 10	100 to 1000
